From patent US20210378241A1, “COMBINATION COMPRISING A BENZAMIDE HERBICIDE AND A PYRIDINE CARBOXYLIC ACID HERBICIDE, AND A METHOD FOR MAKING AND USING THE COMBINATION” (Generic Crop Science LLC, priority 2020, published 2021)

Experiments:
smooth pigweed = conditions: 0.05 to 0.14 kg ai/ha, regardless of application method or herbicide rate; cited from earlier work
jimsonweed = conditions: 0.05 kg/ha; cited from earlier work
velvetleaf = conditions: 0.10 kg/ha, regardless of the application method; cited from earlier work
[1] = tested on: weeds in seedling alfalfa; test: Field trial in seedling alfalfa, Brawley, Calif.: weed density (weeds counted on square yard quadrats); type: in vivo; conditions: use rates of Table 5
Excerpt: (§1) The objective of this study was to evaluate the performance of PRONAMIDE and IMAZETHAPYR in commercial alfalfa hay production in Brawley, Calif. Trial treatments applied were as follows:
(§2) Treatments were applied on seedling alfalfa on March 14th at second to third trifoliate stage (3-4 inches tall). Treatment applications were made using a research CO2 backpack sprayer calibrated to deliver 50 gallons of solution per acre operating at 30 PSI. Weeds on the plots were on average 2-3 inches tall. Weather conditions during application were 34.3% RH, air and soil temperatures were 68° F. and 56.3° F. respectively, and soil moisture was dry.
(§3) Trial was rated at 6, 13, 20, 27 and 34 days after product application (DAA). On each rating date, Percent phytotoxicity and weed control based on a 0 to 100% visual scale, and weed density (number of weeds counted on 3 square yard quadrats) per plot were conducted.
(§4) Data was checked for normality assumptions and analyzed using a univariate Analysis of Variance, and the Least Significant Difference (LSD) mean separation test at a significance level of (α=0.1). Significant differences (p<0.1) were found for the dependent variables assessed at all rating dates (See ANOVA tables). Overall, treatments 5 (Raptor 4), 4 (PRONAMIDE and IMAZETHAPYR) and treatment 3 (WW2019-2) consistently provided the best control (higher % control and lower weed densities). Treatment efficacy as evidenced by % burndown (percent control was higher than 70% in all treatments 3-5) and weed counts (remained steady or declined up to this rating date) peaked at 27 DAA and subsequently declined (weed counts increased and percent control declined) at 34 DAA.

[2] = tested on: weeds in seedling alfalfa; test: Field trial in seedling alfalfa, Brawley, Calif.: percent weed control (burndown), 0 to 100% visual scale; type: in vivo; conditions: for Percent Weed Control (Burndown), mean: single application on seedling alfalfa, use rates of Table 5, 4 replicates; for Overall weed control (higher % control and lower weed densities), in words: all rating dates 6-34 DAA
Excerpt: as §1, §2, §3, §4

Row | Compound | Control of smooth pigweed (smooth pigweed) | Control of jimsonweed, better postemergence compared to soil applications (jimsonweed) | Control of velvetleaf (velvetleaf) | Weed Density, mean ([1]; 6 DA-A) | Weed Density, mean ([1]; 13 DA-A) | Weed Density, mean ([1]; 20 DA-A) | Weed Density, mean ([1]; 27 DA-A) | Weed Density, mean ([1]; 34 DA-A) | Percent Weed Control (Burndown), mean ([2]; 6 DA-A) | Percent Weed Control (Burndown), mean ([2]; 13 DA-A) | Percent Weed Control (Burndown), mean ([2]; 20 DA-A) | Percent Weed Control (Burndown), mean ([2]; 27 DA-A) | Percent Weed Control (Burndown), mean ([2]; 34 DA-A) | Overall weed control (higher % control and lower weed densities), in words ([2]; listed as Treatment 3) | Overall weed control (higher % control and lower weed densities), in words ([2]; listed as WW2019-2) | Overall weed control (higher % control and lower weed densities), in words [2]
1 | CCc1cnc(C2=NC(C)(C(C)C)C(=O)N2)c(C(=O)O)c1 (centres unmarked) [IMAZETHAPYR, 2-[4,5-dihydro-4-methyl-4-(1-methylethyl)-5-oxo-1H-imidazol-2-yl]-5-ethyl-3-pyridinecarboxylic acid] | ≥ 90% | 30% | ≥ 90% | 35 Weeds per yd^2 | 25 Weeds per yd^2 | 29 Weeds per yd^2 | 24 Weeds per yd^2 | 39 Weeds per yd^2 | 28% | 33% | 75% | 79% | 38% | good weed control | best control | 
2 | C#CC(C)(C)NC(=O)c1cc(Cl)cc(Cl)c1 [PRONAMIDE, 3,5-dichloro-n-(1,1-dimethyl-2-propynyl) benzamide] |  |  |  | 51 Weeds per yd^2 | 41 Weeds per yd^2 | 42 Weeds per yd^2 | 43 Weeds per yd^2 | 81 Weeds per yd^2 | 15% | 20% | 38% | 25% | 8% |  |  | less beneficial weed control
